Laboratory results from PubChem BioAssay (NCI).
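Exposure lasted 48 hours, with cells grown in 96-well plates and compounds tested at five concentrations. The concentration for full growth arrest is given as TGI.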 Where a SMILES comes first, the peptide text is derived from it. The star is where a group is joined. Boc = CC(C)(C)OC(=O)*; OBn = c1ccc(CO*)cc1; Bn = c1ccc(C*)cc1

What was measured:
Test in all cases: NCI-60 cell line screen, 48 h
SK-MEL-5 melanoma = test system: SK-MEL-5 melanoma
LOX IMVI melanoma = test system: LOX IMVI melanoma
786-0 renal = test system: 786-0 renal
NCI-H522 lung = test system: NCI-H522 lung
CAKI-1 renal = test system: CAKI-1 renal
OVCAR-3 ovarian = test system: OVCAR-3 ovarian
PC-3 prostate = test system: PC-3 prostate
SN12C renal = test system: SN12C renal
MOLT-4 leukemia = test system: MOLT-4 leukemia
SK-MEL-28 melanoma = test system: SK-MEL-28 melanoma
MDA-MB-231 breast = test system: MDA-MB-231 breast
NCI-H23 lung = test system: NCI-H23 lung
BT-549 breast = test system: BT-549 breast
SF-539 CNS = test system: SF-539 CNS
MDA-MB-435 = test system: MDA-MB-435
OVCAR-4 ovarian = test system: OVCAR-4 ovarian
HCT-116 colon = test system: HCT-116 colon
SK-OV-3 ovarian = test system: SK-OV-3 ovarian
SNB-19 CNS = test system: SNB-19 CNS
SF-268 CNS = test system: SF-268 CNS
TK-10 renal = test system: TK-10 renal
HCT-15 colon = test system: HCT-15 colon
HOP-92 NSCLC = test system: HOP-92 NSCLC
SR leukemia = test system: SR leukemia
RXF 393 renal = test system: RXF 393 renal
U251 CNS = test system: U251 CNS
RPMI-8226 leukemia = test system: RPMI-8226 leukemia
M14 melanoma = test system: M14 melanoma
UO-31 renal = test system: UO-31 renal
OVCAR-5 ovarian = test system: OVCAR-5 ovarian
KM12 colon = test system: KM12 colon
SK-MEL-2 melanoma = test system: SK-MEL-2 melanoma
CCRF-CEM leukemia = test system: CCRF-CEM leukemia
NCI/ADR-RES ovarian = test system: NCI/ADR-RES ovarian
K-562 leukemia = test system: K-562 leukemia
SF-295 CNS = test system: SF-295 CNS
A498 renal = test system: A498 renal
HOP-62 NSCLC = test system: HOP-62 NSCLC
NCI-H226 lung = test system: NCI-H226 lung
A549 NSCLC = test system: A549 NSCLC
SNB-75 CNS = test system: SNB-75 CNS
MCF7 breast = test system: MCF7 breast
MDA-N = test system: MDA-N
IGROV1 ovarian = test system: IGROV1 ovarian
UACC-257 melanoma = test system: UACC-257 melanoma
COLO 205 colon = test system: COLO 205 colon
EKVX NSCLC = test system: EKVX NSCLC
T-47D breast = test system: T-47D breast
OVCAR-8 ovarian = test system: OVCAR-8 ovarian
HCC-2998 colon = test system: HCC-2998 colon
ACHN renal = test system: ACHN renal
MALME-3M melanoma = test system: MALME-3M melanoma
NCI-H460 lung = test system: NCI-H460 lung
SW-620 colon = test system: SW-620 colon
UACC-62 melanoma = test system: UACC-62 melanoma
HT29 colon = test system: HT29 colon
HL-60(TB) leukemia = test system: HL-60(TB) leukemia
HS 578T breast = test system: HS 578T breast

Measured: TGI

CCCCC(=O)Nc1ccc2cc(C(=O)OC)c(=O)[nH]c2n1
> 100 µM: SK-MEL-5 melanoma | LOX IMVI melanoma | 786-0 renal | NCI-H522 lung | CAKI-1 renal | OVCAR-3 ovarian | PC-3 prostate | SN12C renal | MOLT-4 leukemia | SK-MEL-28 melanoma | MDA-MB-231 breast | NCI-H23 lung | BT-549 breast | SF-539 CNS | MDA-MB-435 | OVCAR-4 ovarian | HCT-116 colon | SK-OV-3 ovarian | SNB-19 CNS | SF-268 CNS | TK-10 renal | HCT-15 colon | HOP-92 NSCLC | SR leukemia | RXF 393 renal | U251 CNS | RPMI-8226 leukemia | M14 melanoma | UO-31 renal | OVCAR-5 ovarian | KM12 colon | SK-MEL-2 melanoma | CCRF-CEM leukemia | NCI/ADR-RES ovarian | K-562 leukemia | SF-295 CNS | A498 renal | HOP-62 NSCLC | NCI-H226 lung | A549 NSCLC | SNB-75 CNS | MCF7 breast | MDA-N | IGROV1 ovarian | UACC-257 melanoma | COLO 205 colon | EKVX NSCLC | T-47D breast | OVCAR-8 ovarian | HCC-2998 colon | ACHN renal | MALME-3M melanoma | NCI-H460 lung | SW-620 colon

CC(C)CC(NC(=O)C(CCC(=O)OCc1ccccc1)NC(=O)OC(C)(C)C)C(=O)NC(COCc1ccccc1)C(=O)NC(Cc1ccccc1)C(=O)O (centres undefined) (Boc-E(OBn)LS(Bn)F-OH; configuration not given here)
> 100 µM: SK-MEL-5 melanoma | 786-0 renal | UACC-62 melanoma | PC-3 prostate | SN12C renal | MOLT-4 leukemia | SK-MEL-28 melanoma | MDA-MB-231 breast | NCI-H23 lung | BT-549 breast | HCT-116 colon | SNB-19 CNS | TK-10 renal | HCT-15 colon | HOP-92 NSCLC | SR leukemia | RXF 393 renal | U251 CNS | RPMI-8226 leukemia | HT29 colon | HL-60(TB) leukemia | M14 melanoma | UO-31 renal | OVCAR-5 ovarian | KM12 colon | SK-MEL-2 melanoma | K-562 leukemia | A498 renal | HOP-62 NSCLC | NCI-H226 lung | A549 NSCLC | SNB-75 CNS | MCF7 breast | MDA-N | IGROV1 ovarian | UACC-257 melanoma | COLO 205 colon | EKVX NSCLC | HS 578T breast | OVCAR-8 ovarian | HCC-2998 colon | ACHN renal | MALME-3M melanoma | NCI-H460 lung | SW-620 colon
